“And” between values parts separate entries of the source, which are not always exact repeats. Equal values may be shown once.

The subject of one series is caterpillars of the army worm (Spodoptera exigua). As to the kind of experiment: Spodoptera exigua test (cabbage leaves dipped). Type of series: in vivo. Conditions: 500 ppm active compound. The protocol:
(§1) To produce a suitable preparation of active compound, 1 part by weight of active compound is mixed with the stated amounts of solvent and emulsifier, and the concentrate is diluted with emulsifier-containing water to the desired concentration.
Cabbage leaves (Brassica oleracea) are treated by being dipped into the preparation of active compound of the desired concentration and are populated with caterpillars of the army worm (Spodoptera exigua) while the leaves are still moist.
(§2) After the desired period of time, the kill in % is determined. 100% means that all caterpillars have been killed; 0% means that none of the caterpillars have been killed.
In the case of `Cc1cc(C(F)(C(F)(F)F)C(F)(F)F)ccc1NC(=O)c1c(Cl)cccc1C(=O)NC(C)CSC[Si](C)(C)C` (stereo not shown) [drawing 46], the “Kill rate in % after 7 d” value worked out at 100%. For the compound `Cc1cc(C(F)(C(F)(F)F)C(F)(F)F)ccc1NC(=O)c1cccc(Cl)c1C(=O)NC(C)CSC[Si](C)(C)C` (stereo not shown) [drawing 47], the “Kill rate in % after 7 d” value was 100%.

As to `Cc1cc(C(F)(C(F)(F)F)C(F)(F)F)ccc1NC(=O)c1c(I)cccc1C(=O)NC(C)CSC[Si](C)(C)C` (stereo not shown) [drawing 48], the “Kill rate in % after 7 d” value is 100%. `Cc1cc(C(F)(C(F)(F)F)C(F)(F)F)ccc1NC(=O)c1cccc(I)c1C(=O)NC(C)CSC[Si](C)(C)C` (stereo not shown) [drawing 49]: the “Kill rate in % after 7 d” value is given as 100%.

Another series has as its system caterpillars of the diamond back moth (Plutella xylostella, sensitive strain). As to the kind of experiment: Plutella test, sensitive strain (cabbage leaves dipped). Conditions: 500 ppm active compound. It counts as in vivo. The protocol:
Plutella Test, Sensitive Strain
as §1
Cabbage leaves (Brassica oleracea) are treated by being dipped into the preparation of active compound of the desired concentration and are populated with caterpillars of the diamond back moth (Plutella xylostella, sensitive strain) while the leaves are still moist.
as §2
As to `Cc1cc(C(F)(C(F)(F)F)C(F)(F)F)ccc1NC(=O)c1c(Cl)cccc1C(=O)NC(C)CSC[Si](C)(C)C` (stereo not shown) [drawing 40], the “Kill rate in % after 7 d” value amounted to 100%. The same measure, in the same setting: in the case of `Cc1cc(C(F)(C(F)(F)F)C(F)(F)F)ccc1NC(=O)c1cccc(Cl)c1C(=O)NC(C)CSC[Si](C)(C)C` (stereo not shown) [drawing 41] it was 100%; in that of `Cc1cc(C(F)(C(F)(F)F)C(F)(F)F)ccc1NC(=O)c1c(I)cccc1C(=O)NC(C)CSC[Si](C)(C)C` (stereo not shown) [drawing 42], 100%; in that of `Cc1cc(C(F)(C(F)(F)F)C(F)(F)F)ccc1NC(=O)c1cccc(I)c1C(=O)NC(C)CSC[Si](C)(C)C` (stereo not shown) [drawing 43], 100%.

For the next series, the system named is caterpillars of the diamond back moth (Plutella xylostella, resistant strain). In words: Plutella test, resistant strain (cabbage leaves dipped). It counts as in vivo. Conditions: 500 ppm active compound. The method, then: Plutella Test, Resistant Strain
as §1
Cabbage leaves (Brassica oleracea) are treated by being dipped into the preparation of active compound of the desired concentration and are populated with caterpillars of the diamond back moth (Plutella xylostella, resistant strain) while the leaves are still moist.
as §2
For the compound `Cc1cc(C(F)(C(F)(F)F)C(F)(F)F)ccc1NC(=O)c1c(Cl)cccc1C(=O)NC(C)CSC[Si](C)(C)C` (stereo not shown) [drawing 44], the “Kill rate in % after 7 d” value is reported as 100%. Regarding `Cc1cc(C(F)(C(F)(F)F)C(F)(F)F)ccc1NC(=O)c1cccc(Cl)c1C(=O)NC(C)CSC[Si](C)(C)C` (stereo not shown) [drawing 45], the “Kill rate in % after 7 d” value was found to be 100%.

The next series concerns caterpillars of the army worm (Spodoptera frugiperda). As to the kind of experiment: Spodoptera frugiperda test (cabbage leaves dipped). Type of series: in vivo. The note with it: 168 h, 500 ppm active compound, after 7 d, read-out: Kill rate in % after 7 d. The protocol:
Spodoptera frugiperda Test
as §1
Cabbage leaves (Brassica oleracea) are treated by being dipped into the preparation of active compound of the desired concentration and are populated with caterpillars of the army worm (Spodoptera frugiperda) while the leaves are still moist.
as §2
As for `Cc1cc(C(F)(C(F)(F)F)C(F)(F)F)ccc1NC(=O)c1c(Cl)cccc1C(=O)NCC(C)(C)O[Si](C)(C)C`, the pest or weed control at 500 ppm came out at 100%. Same read-out and setting: with `Cc1cc(C(F)(C(F)(F)F)C(F)(F)F)ccc1NC(=O)c1cccc(Cl)c1C(=O)NC[Si](C)(C)C` the figure was 100%. The same measure, in the same setting: with `Cc1cc(C(F)(C(F)(F)F)C(F)(F)F)ccc1NC(=O)c1cccc(Cl)c1C(=O)NCC(C)(C)O[Si](C)(C)C` the figure was 100%; with `Cc1cc(Oc2ccc(C(F)(F)F)cc2)ccc1NC(=O)c1c(I)cccc1C(=O)NC(C)CSC[Si](C)(C)C` (stereo not shown), 100%; with `Cc1cc(Oc2ccc(C(F)(F)F)cc2)ccc1NC(=O)c1c(Cl)cccc1C(=O)NC(C)CSC[Si](C)(C)C` (stereo not shown), 100%. Still for that read-out and setting: in the case of `Cc1cc(-c2nnn(C(C)(C)C)n2)ccc1NC(=O)c1cccc(I)c1C(=O)NC(C)CSC[Si](C)(C)C` (stereo not shown) it was 100%. On to `Cc1cc(C(F)(C(F)(F)F)C(F)(F)F)ccc1NC(=O)c1c(Cl)cccc1C(=O)NC(C)CSC[Si](C)(C)C` (stereo not shown) [drawing 52], for which the pest or weed control at 500 ppm amounted to 100%. On the same count and under the same terms, in the case of `Cc1cc(C(F)(C(F)(F)F)C(F)(F)F)ccc1NC(=O)c1cccc(Cl)c1C(=O)NC(C)CSC[Si](C)(C)C` (stereo not shown) [drawing 54] it was 100%; in that of `Cc1cc(C(F)(C(F)(F)F)C(F)(F)F)ccc1NC(=O)c1c(I)cccc1C(=O)NC(C)CSC[Si](C)(C)C` (stereo not shown) [drawing 55], 100%; in that of `Cc1cc(C(F)(C(F)(F)F)C(F)(F)F)ccc1NC(=O)c1cccc(I)c1C(=O)NC(C)CSC[Si](C)(C)C` (stereo not shown) [drawing 56], 100%. As to `Cc1cc(Oc2ccc(C(F)(F)F)cc2)ccc1NC(=O)c1cccc(I)c1C(=O)NC(C)CSC[Si](C)(C)C` (stereo not shown) [drawing 57], the pest or weed control at 500 ppm was determined as 100%. Still for that read-out and setting: with `Cc1cc(Oc2ccc(C(F)(F)F)cc2)ccc1NC(=O)c1cccc(Cl)c1C(=O)NC(C)CSC[Si](C)(C)C` (stereo not shown) [drawing 58] the figure was 100%.

In a further series the test system is larvae of the mustard beetle (Phaedon cochleariae). In words: Phaedon larvae test (cabbage leaves dipped). It counts as in vivo. Conditions: 500 ppm active compound. The method, then: as §1
Cabbage leaves (Brassica oleracea) are treated by being dipped into the preparation of active compound of the desired concentration and are populated with larvae of the mustard beetle (Phaedon cochleariae) while the leaves are still moist.
After the desired period of time, the kill in % is determined. 100% means that all beetle larvae have been killed; 0% means that none of the beetle larvae have been killed.
Take `Cc1cc(C(F)(C(F)(F)F)C(F)(F)F)ccc1NC(=O)c1c(Cl)cccc1C(=O)NC(C)CSC[Si](C)(C)C` (stereo not shown) [drawing 35]: the “Kill rate in % after 7 d” value is 90%. Regarding `Cc1cc(C(F)(C(F)(F)F)C(F)(F)F)ccc1NC(=O)c1cccc(Cl)c1C(=O)NC(C)CSC[Si](C)(C)C` (stereo not shown) [drawing 36], the “Kill rate in % after 7 d” value is reported as 100%. As for `Cc1cc(C(F)(C(F)(F)F)C(F)(F)F)ccc1NC(=O)c1cccc(I)c1C(=O)NC(C)CSC[Si](C)(C)C` (stereo not shown) [drawing 37], the “Kill rate in % after 7 d” value was determined as 100%. Regarding `Cc1cc(Oc2ccc(C(F)(F)F)cc2)ccc1NC(=O)c1cccc(I)c1C(=O)NC(C)CSC[Si](C)(C)C` (stereo not shown) [drawing 38], the “Kill rate in % after 7 d” value amounted to 100%. Turning to `Cc1cc(Oc2ccc(C(F)(F)F)cc2)ccc1NC(=O)c1cccc(Cl)c1C(=O)NC(C)CSC[Si](C)(C)C` (stereo not shown) [drawing 39], the “Kill rate in % after 7 d” value was 100%.

Tested on in a further series: not listed separately
In words: logP determination by HPLC (reversed-phase C18), EEC directive 79/831 Annex V.A8. Conditions: pH 2.3, 0.1% aqueous phosphoric acid/acetonitrile gradient, 43° C. Type of series: physicochemical. The method, then:
The stated logP values were determined in accordance with EEC directive 79/831 Annex V.A8 by HPLC (High Performance Liquid Chromatography) using a reversed-phase column (C 18). Temperature: 43° C.
In the acidic range, the determination was carried out at pH 2.3 using the mobile phases 0.1% aqueous phosphoric acid and acetonitrile; linear gradient from 10% acetonitrile to 90% acetonitrile.
Calibration was carried out using unbranched alkan-2-ones (having 3 to 16 carbon atoms) with known logP values (determination of the logP values by the retention times using linear interpolation between two successive alkanones.
As for “3-Chloro-N^1-[2-methyl-4-(1,1,2,2-tetrafluoroethoxy)phenyl]-N^2-[(trimethylsilyl)methyl]phthalamide (Isomer 1) and 3-chloro-N^2-[2-methyl-4-(1,1,2,2-tetrafluoroethoxy)phenyl]-N^1-[(trimethylsilyl)methyl]phthalamide (Isomer 2) [Example 2 Isomer Mixture]”, the “log P (pH 2.3)” value is 3.59 and 3.69.

Still in this series, the particulars now being: pH 2.3, 0.1% aqueous phosphoric acid/acetonitrile gradient, 43° C., read-out: log P (pH 2.3).
As to `Cc1cc(C(F)(C(F)(F)F)C(F)(F)F)ccc1NC(=O)c1c(Cl)cccc1C(=O)NC(C)CSC[Si](C)(C)C` (single isomer, unassigned) [Example 1 Isomer 1, 3-Chloro-N^2-{2-methyl-4-[1,2,2,2-tetrafluoro-1-(trifluoromethyl)ethyl]phenyl}-N^1-(1-methyl-2-{[(trimethylsilyl)methyl]sulphanyl}ethyl)phthalamide], the chromatographic logP came to 5.38. Still for that read-out and setting: with `Cc1cc(C(F)(C(F)(F)F)C(F)(F)F)ccc1NC(=O)c1cccc(Cl)c1C(=O)NC(C)CSC[Si](C)(C)C` (single isomer, unassigned) [Example 1 Isomer 2, 3-Chloro-N^1-{2-methyl-4-[1,2,2,2-tetrafluoro-1-(trifluoromethyl)ethyl]phenyl}-N^2-(1-methyl-2-{[(trimethylsilyl)methyl]sulphanyl}ethyl)phthalamide] the figure was 5.56.

In the case of `Cc1cc(C(F)(C(F)(F)F)C(F)(F)F)ccc1NC(=O)c1cccc(Cl)c1C(=O)NCC(C)(C)O[Si](C)(C)C` (single isomer, unassigned) [Example 3 Isomer 1, 3-Chloro-N^1-{2-methyl-4-[1,2,2,2-tetrafluoro-1-(trifluoromethyl)ethyl]phenyl}-N^2-{2-methyl-2-[(trimethylsilyl)oxy]propyl}phthalamide], the chromatographic logP was found to be 3.11. On the same count and under the same terms, with `Cc1cc(C(F)(C(F)(F)F)C(F)(F)F)ccc1NC(=O)c1c(Cl)cccc1C(=O)NCC(C)(C)O[Si](C)(C)C` (single isomer, unassigned) [Example 3 Isomer 2, 3-Chloro-N^2-{2-methyl-4-[1,2,2,2-tetrafluoro-1-(trifluoromethyl)ethyl]phenyl}-N^1-{2-methyl-2-[(trimethylsilyl)oxy]propyl}phthalamide] the figure was 3.19. Regarding `CC(N)CSC[Si](C)(C)C` (stereo not shown) [1-{[(trimethylsilyl)methyl]sulphanyl}-2-propanamide], the chromatographic logP is 1.28.

The test system of the next series is Heliothis virescens caterpillars. As to the kind of experiment: Heliothis virescens test (soybean shoots dipped). It counts as in vivo. Conditions: 500 ppm active compound. The protocol: as §1
Soybean shoots (Glycine max) are treated by being dipped into the preparation of active compound of the desired concentration and are populated with Heliothis virescens caterpillars while the leaves are still moist.
as §2
With `Cc1cc(C(F)(C(F)(F)F)C(F)(F)F)ccc1NC(=O)c1c(Cl)cccc1C(=O)NC(C)CSC[Si](C)(C)C` (stereo not shown) [drawing 31], the “Kill rate in % after 7 d” value is given as 100%.

For the compound `Cc1cc(C(F)(C(F)(F)F)C(F)(F)F)ccc1NC(=O)c1cccc(Cl)c1C(=O)NC(C)CSC[Si](C)(C)C` (stereo not shown) [drawing 32], the “Kill rate in % after 7 d” value is reported as 100%. For the compound `Cc1cc(C(F)(C(F)(F)F)C(F)(F)F)ccc1NC(=O)c1c(I)cccc1C(=O)NC(C)CSC[Si](C)(C)C` (stereo not shown) [drawing 33], the “Kill rate in % after 7 d” value is listed as 100%. `Cc1cc(C(F)(C(F)(F)F)C(F)(F)F)ccc1NC(=O)c1cccc(I)c1C(=O)NC(C)CSC[Si](C)(C)C` (stereo not shown) [drawing 34]: the “Kill rate in % after 7 d” value was determined as 100%.

These data come from US6835847B2, “Phthalic acid diamide, method for the production thereof and the use of the same as a pesticide” (Bayer CropScience AG, priority 2001, dated 2004).
